What was measured:
wild oat = experiment: Test B pre/postemergence wild oat; assay type: in vivo, Avena fatua; conditions: for Plant response rating, Wild oats: scale of 0 to 10 where 0 is no effect and 10 is complete control
Method in brief: (§1)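 Test chemicals in a non-phytotoxic solvent mixture with surfactant were sprayed preemergence onto planted seeds and postemergence onto plants 2 to 18 cm tall (1- to 4-leaf stage). After twelve to sixteen days in a greenhouse, injury was visually rated against untreated controls from 0 (no effect) to 10 (complete control).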

giant foxtail = experiment: Test B pre/postemergence giant foxtail; assay type: in vivo, Setaria faberii
Method in brief: as §1

purple nutsedge = experiment: Test B pre/postemergence purple nutsedge; assay type: in vivo, Cyperus rotundus; conditions: for Plant response rating, Nutsedge: scale of 0 to 10 where 0 is no effect and 10 is complete control
Method in brief: as §1

bamyardgrass = experiment: Test B flood test barnyardgrass; assay type: in vivo, Echinochloa crus-galli
Method in brief: (§2)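 Flood test on plants grown to the 2-leaf stage; treated plants kept in greenhouse twelve to sixteen days, then visually rated against controls on a 0 (no effect) to 10 (complete control) scale.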

blackgrass = experiment: Test B pre/postemergence blackgrass; assay type: in vivo, Alopecurus myosuroides
Method in brief: as §1

smallflower flatsedge = experiment: Test B flood test smallflower flatsedge; assay type: in vivo, Cyperus difformis
Method in brief: as §2

duck salad = experiment: Test B flood test duck salad; assay type: in vivo, Heteranthera limosa
Method in brief: as §2

morningglory = experiment: Test B pre/postemergence morningglory; assay type: in vivo, Ipomoea hederacea; conditions: for Plant response rating, Morningglory: scale of 0 to 10 where 0 is no effect and 10 is complete control
Method in brief: as §1

wheat = experiment: Test B pre/postemergence wheat; assay type: in vivo, Triticum aestivum; conditions: for Plant response rating, Wheat: scale of 0 to 10 where 0 is no effect and 10 is complete control
Method in brief: as §1

bedstraw = experiment: Test B pre/postemergence bedstraw; assay type: in vivo, Galium aparine; conditions: Postemergence
Method in brief: as §1

rape = experiment: Test B pre/postemergence rape; assay type: in vivo, Brassica napus; conditions: for Plant response rating, Rape: scale of 0 to 10 where 0 is no effect and 10 is complete control
Method in brief: as §1

pigweed = experiment: Test B pre/postemergence pigweed; assay type: in vivo, Amaranthus retroflexus; conditions: for Plant response rating, Redroot pigweed: scale of 0 to 10 where 0 is no effect and 10 is complete control
Method in brief: as §1

soybean = experiment: Test B pre/postemergence soybean; assay type: in vivo, Glycine max; conditions: for Plant response rating, Soybean: scale of 0 to 10 where 0 is no effect and 10 is complete control
Method in brief: as §1

sugar beet = experiment: Test B pre/postemergence sugar beet; assay type: in vivo, Beta vulgaris; conditions: for Plant response rating, Sugarbeets: scale of 0 to 10 where 0 is no effect and 10 is complete control
Method in brief: as §1

surinam grass = experiment: Test B pre/postemergence surinam grass; assay type: in vivo, Brachiaria decumbens
Method in brief: as §1

cocklebur = experiment: Test B pre/postemergence cocklebur; assay type: in vivo, Xanthium strumarium
Method in brief: as §1

[1] = Postemergence, Rate 250 g/ha, scale 0 to 10
[2] = Preemergence, Rate 250 g/ha, scale 0 to 10, 0 is no effect, 10 is complete control
[3] = Preemergence, Rate 500 g/ha, scale 0 to 10, 0 is no effect, 10 is complete control
[4] = Rate 62 g/ha, Postemergence, scale 0 to 10 (0 no effect, 10 complete control)
[5] = Rate 125 g/ha, Postemergence, scale 0 to 10, 0 is no effect, 10 is complete control
[6] = Postemergence, Rate 500 g/ha, scale of 0 to 10 where 0 is no effect and 10 is complete control
[7] = Preemergence, Rate 62 g/ha, scale of 0 to 10 where 0 is no effect and 10 is complete control
[8] = Preemergence, Rate 125 g/ha, scale of 0 to 10 where 0 is no effect and 10 is complete control
[9] = Rate 62 g/ha, flood test species, Pre-emergence, visual evaluation after twelve to sixteen days
[10] = Rate 125 g/ha, under heading Pre-emergence, flood test species, visual evaluation after twelve to sixteen days
[11] = Rate 250 g/ha, Pre-emergence (flood test species), scale 0 to 10, 0 is no effect, 10 is complete control
[12] = Rate 500 g/ha, Pre-emergence, flood test species, scale 0 to 10 (0 no effect, 10 complete control)

CC(C)N(C(=O)n1oc(=O)n(CO)c1=O)c1ccc(F)cc1 [Compound 470]
Wild oats plant response rating (wild oat; [1]): 0 | Plant response rating, Wild oats (wild oat; Preemergence, Rate 62 g/ha): 0 | Plant response rating, Wild oats (wild oat; Preemergence, Rate 125 g/ha): 0 | Wild oats plant response rating (wild oat; [2]): 0 | Wild oats plant response rating (wild oat; [3]): 3 | Wild oats plant response rating (wild oat; [4]): 0 | Wild oats plant response rating (wild oat; [5]): 0 | Giant foxtail plant response rating (giant foxtail; [1]): 0 | Giant foxtail plant response rating (giant foxtail; [6]): 0 | Plant response rating, Giant foxtail (giant foxtail; [7]): 0 | Plant response rating, Giant foxtail (giant foxtail; [8]): 0 | Giant foxtail plant response rating (giant foxtail; [2]): 0 | Giant foxtail plant response rating (giant foxtail; [3]): 3 | Giant foxtail plant response rating (giant foxtail; [4]): 0 | Giant foxtail plant response rating (giant foxtail; [5]): 0 | Nutsedge plant response rating (purple nutsedge; [1]): 0 | Plant response rating, Nutsedge (purple nutsedge; Preemergence, Rate 62 g/ha): 0 | Plant response rating, Nutsedge (purple nutsedge; Preemergence, Rate 125 g/ha): 0 | Nutsedge plant response rating (purple nutsedge; [2]): 0 | Nutsedge plant response rating (purple nutsedge; [3]): 0 | Nutsedge plant response rating (purple nutsedge; [4]): 0 | Nutsedge plant response rating (purple nutsedge; [5]): 0 | Plant response rating, Barnyardgrass (0 to 10 scale, 0 is no effect, 10 is complete control) (bamyardgrass; [9]): 0 | Barnyardgrass plant response rating (0 to 10 scale, 0 is no effect, 10 is complete control) (bamyardgrass; [10]): 0 | Barnyardgrass plant response rating (bamyardgrass; [11]): 0 | Barnyardgrass plant response rating (bamyardgrass; [12]): 0 | Blackgrass plant response rating (blackgrass; [1]): 0 | Blackgrass plant response rating (blackgrass; [6]): 0 | Plant response rating, Blackgrass (blackgrass; [7]): 0 | Plant response rating, Blackgrass (blackgrass; [8]): 0 | Blackgrass plant response rating (blackgrass; [2]): 7 | Blackgrass plant response rating (blackgrass; [4]): 0 | Blackgrass plant response rating (blackgrass; [5]): 0 | Plant response rating, S. Flatsedge (0 to 10 scale, 0 is no effect, 10 is complete control) (smallflower flatsedge; [9]): 0 | S. Flatsedge plant response rating (0 to 10 scale, 0 is no effect, 10 is complete control) (smallflower flatsedge; [10]): 0 | S. Flatsedge plant response rating (smallflower flatsedge; [11]): 0 | S. Flatsedge plant response rating (smallflower flatsedge; [12]): 0 | Plant response rating, Ducksalad (0 to 10 scale, 0 is no effect, 10 is complete control) (duck salad; [9]): 0 | Ducksalad plant response rating (0 to 10 scale, 0 is no effect, 10 is complete control) (duck salad; [10]): 0 | Ducksalad plant response rating (duck salad; [11]): 0 | Ducksalad plant response rating (duck salad; [12]): 0 | Morningglory plant response rating (morningglory; [1]): 0 | Plant response rating, Morningglory (morningglory; Preemergence, Rate 62 g/ha): 0 | Plant response rating, Morningglory (morningglory; Preemergence, Rate 125 g/ha): 0 | Morningglory plant response rating (morningglory; [2]): 0 | Morningglory plant response rating (morningglory; [3]): 0 | Morningglory plant response rating (morningglory; [4]): 0 | Morningglory plant response rating (morningglory; [5]): 0 | Wheat plant response rating (wheat; [1]): 0 | Plant response rating, Wheat (wheat; Preemergence, Rate 62 g/ha): 0 | Plant response rating, Wheat (wheat; Preemergence, Rate 125 g/ha): 0 | Wheat plant response rating (wheat; [2]): 0 | Wheat plant response rating (wheat; [3]): 0 | Wheat plant response rating (wheat; [4]): 0 | Wheat plant response rating (wheat; [5]): 0 | Bedstraw plant response rating (bedstraw; Rate 62 g/ha, scale 0 to 10 (0 no effect, 10 complete control)): 0 | Bedstraw plant response rating (bedstraw; Rate 125 g/ha, scale 0 to 10, 0 is no effect, 10 is complete control): 0 | Rape plant response rating (rape; [1]): 0 | Plant response rating, Rape (rape; Preemergence, Rate 62 g/ha): 0 | Plant response rating, Rape (rape; Preemergence, Rate 125 g/ha): 0 | Rape plant response rating (rape; [2]): 0 | Rape plant response rating (rape; [3]): 0 | Rape plant response rating (rape; [4]): 0 | Rape plant response rating (rape; [5]): 0 | Redroot pigweed plant response rating (pigweed; [1]): 0 | Plant response rating, Redroot pigweed (pigweed; Preemergence, Rate 62 g/ha): 0 | Plant response rating, Redroot pigweed (pigweed; Preemergence, Rate 125 g/ha): 0 | Redroot pigweed plant response rating (pigweed; [2]): 0 | Redroot pigweed plant response rating (pigweed; [3]): 0 | Redroot pigweed plant response rating (pigweed; [4]): 0 | Redroot pigweed plant response rating (pigweed; [5]): 0 | Soybean plant response rating (soybean; [1]): 1 | Plant response rating, Soybean (soybean; Preemergence, Rate 62 g/ha): 0 | Plant response rating, Soybean (soybean; Preemergence, Rate 125 g/ha): 0 | Soybean plant response rating (soybean; [2]): 0 | Soybean plant response rating (soybean; [3]): 0 | Soybean plant response rating (soybean; [4]): 0 | Soybean plant response rating (soybean; [5]): 0 | Sugarbeets plant response rating (sugar beet; [1]): 0 | Plant response rating, Sugarbeets (sugar beet; Preemergence, Rate 62 g/ha): 0 | Plant response rating, Sugarbeets (sugar beet; Preemergence, Rate 125 g/ha): 0 | Sugarbeets plant response rating (sugar beet; [2]): 0 | Sugarbeets plant response rating (sugar beet; [3]): 0 | Sugarbeets plant response rating (sugar beet; [4]): 0 | Sugarbeets plant response rating (sugar beet; [5]): 0 | B. signalgrass plant response rating (surinam grass; Postemergence, Rate 250 g/ha, scale 0 to 10, 0 no effect, 10 complete control): 0 | B. signalgrass plant response rating (surinam grass; [6]): 0 | Plant response rating, B. signalgrass (surinam grass; [7]): 0 | Plant response rating, B. signalgrass (surinam grass; [8]): 0 | B. signalgrass plant response rating (surinam grass; [2]): 4 | B. signalgrass plant response rating (surinam grass; [3]): 6 | B. signalgrass plant response rating (surinam grass; [4]): 0 | B. signalgrass plant response rating (surinam grass; [5]): 0 | Cocklebur plant response rating (cocklebur; [1]): 0 | Cocklebur plant response rating (cocklebur; [6]): 0 | Plant response rating, Cocklebur (cocklebur; [7]): 0 | Plant response rating, Cocklebur (cocklebur; [8]): 0 | Cocklebur plant response rating (cocklebur; [2]): 0 | Cocklebur plant response rating (cocklebur; [3]): 0 | Cocklebur plant response rating (cocklebur; [4]): 0 | Cocklebur plant response rating (cocklebur; [5]): 0

— patent publication US6737383B1, “Herbicidal oxadiazolidines” (priority 1999, dated 2004)
